32 compounds from patent publication US7317007B2, “Benzothiazole derivatives with activity as adenosine receptor ligands” (Hoffmann-La Roche Inc., priority 2000, dated 2008) can be followed below.

For one data set, the target named is T1, human adenosine A2A receptor (Homo sapiens, UniProt P29274).
T1 construct: expressed in transfected cells; host or cells: CHO cells, Semliki Forest virus expression system; washed membrane pellet used
T1 sequence (P29274 whole entry): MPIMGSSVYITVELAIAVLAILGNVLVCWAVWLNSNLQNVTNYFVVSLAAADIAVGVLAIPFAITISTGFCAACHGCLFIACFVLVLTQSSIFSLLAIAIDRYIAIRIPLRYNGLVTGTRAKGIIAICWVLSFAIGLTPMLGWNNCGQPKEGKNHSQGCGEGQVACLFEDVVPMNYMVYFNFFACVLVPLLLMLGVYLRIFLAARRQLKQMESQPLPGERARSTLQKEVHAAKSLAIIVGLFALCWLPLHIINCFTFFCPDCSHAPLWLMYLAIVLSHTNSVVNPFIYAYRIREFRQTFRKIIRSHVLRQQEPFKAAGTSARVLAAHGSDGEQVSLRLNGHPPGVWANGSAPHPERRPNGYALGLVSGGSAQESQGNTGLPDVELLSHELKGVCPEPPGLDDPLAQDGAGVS
Nature of the data set: [3H]-SCH-58261 binding assay at the human adenosine A2A receptor.
Details: not given
As to the method:
Human Adenosine A2A Receptor
The human adenosine A2A receptor was recombinantly expressed in chinese hamster ovary (CHO) cells using the semliki forest virus expression system. Cells were harvested, washed twice by centrifugation, homogenised and again washed by centrifugation. The final washed membrane pellet was suspended in a Tris (50 mM) buffer containing 120 mM NaCl, 5 mM KCl, 2 mM CaCl2 and 10 mM MgCl2 (pH 7.4) (buffer A). The [^3H]-SCH-58261 (Dionisotti et al., 1997, Br J Pharmacol 121, 353; 1 nM) binding assay was carried out in 96-well plates in the presence of 2.5 μg of membrane protein, 0.5 mg of Ysi-poly-1-lysine SPA beads and 0.1 U adenosine deaminase in a final volume of 200 μl of buffer A. Non-specific binding was defined using xanthine amine congener (XAC; 2 μM). Compounds were tested at 10 concentrations from 10 μM-0.3 nM. All assays were conducted in duplicate and repeated at least two times. Assay plates were incubated for 1 hour at room temperature before centrifugation and then bound ligand determined using a Packard Topcount scintillation counter. IC50 values were calculated using a non-linear curve fitting program and Ki values calculated using the Cheng-Prussoff equation.
The compound `COc1ccc(N2CCOCC2)c2sc(NC(=O)N3CCC(=O)CC3)nc12` [Example 342, 4-Oxo-piperidine-1-carboxylic acid (4-methoxy-7-morpholin-4-yl-benzothiazol-2-yl)-amide] gave a Ki of 3.16 nM.

The same data set, now with this note: read-out: pKi value (converted).
Turning to `COc1ccc(N2CCOCC2)c2sc(NC(=O)c3ccc(Cn4ccnc4C)cc3)nc12` [Example 308, N-(4-Methoxy-7-morpholin-4-yl-benzothiazol-2-yl)-4-(2-methyl-imidazol-1-yl-methyl)-benzamide], the Ki was 0.794 nM. In the case of `COc1ccc(N2CCOCC2)c2sc(NC(=O)c3ccc(CN4CCN(C)CC4)cc3)nc12` [Example 309, N-(4-Methoxy-7-morpholin-4-yl-benzothiazol-2-yl)-4-(4-methyl-piperazin-1-yl-methyl)-benzamide], the Ki is 3.16 nM. The same measure, in the same setting: the same measure for `COCCOCc1ccc(C(=O)Nc2nc3c(OC)ccc(N4CCOCC4)c3s2)cc1` [Example 314, 4-(2-Methoxy-ethoxymethyl)-N-(4-methoxy-7-morpholin-4-yl-benzothiazol-2-yl)-benzamide]: 3.16 nM; for `COCc1ccc(C(=O)Nc2nc3c(OC)ccc(N4CCOCC4)c3s2)cc1` [Example 315, 4-Methoxymethyl-N-(4-methoxy-7-morpholin-4-yl-benzothiazol-2-yl)-benzamide]: 2.51 nM; for `COc1ccc(N2CCSCC2)c2sc(NC(=O)c3ccccc3)nc12` [Example 317, N-(4-Methoxy-7-thiomorpholin-4-yl-benzothiazol-2-yl)-benzamide]: 2.51 nM. On to `COc1ccc(N2CCOCC2)c2sc(NC(=O)C3CCN(C(=O)OC(C)(C)C)CC3)nc12` [Example 326, 4-(4-Methoxy-7-morpholin-4-yl-benzothiazol-2-ylcarbamoyl)-piperidine-1-carboxylic acid tert-butyl ester], for which the Ki is 3.16 nM. In the case of `COc1ccc(N2CCOCC2)c2sc(NC(=O)C3CCN(C(C)=O)CC3)nc12` [Example 327, 1-Acetyl-piperidine-4-carboxylic acid (4-methoxy-7-morpholin-4-yl-benzothiazol-2-yl)-amide], the Ki is 3.16 nM. Turning to `COC(=O)N(C)Cc1ccc(C(=O)Nc2nc3c(OC)ccc(N4CCOCC4)c3s2)cc1` [Example 369, [4-(4-Methoxy-7-morpholin-4-yl-benzothiazol-2-ylcarbamoyl)-benzyl]-methyl-carbamic acid methyl ester], the Ki is 0.631 nM.

Tested on in the next data set: not given
Test: not given
Details: not given
One may read the melting point as the temperature, or range, at which the solid turns liquid. For `CCOC(=O)C(=O)Nc1nc2c(OC)ccc(-c3ccccc3)c2s1` [Example 47, N-(4-Methoxy-7-phenyl-benzothiazol-2-yl)-oxalamic acid ethyl ester], the melting point was in the range of 138 to 142 °C. For the compound `COc1ccc(-c2csc(N3CCOCC3)n2)c2sc(NC(=O)c3ccc(F)cc3)nc12` [Example 216, 4-Fluoro-N-[4-methoxy-7-(2-morpholin-4-yl-thiazol-4-yl)-benzothiazol-2-yl]-benzamide], the melting point fell in the range of 225 to 227 °C. Consider `COc1ccc(-c2csc(N)n2)c2sc(NC(=O)c3ccc(F)cc3)nc12` [Example 217, N-[7-(2-Amino-thiazol-4-yl)-4-methoxy-benzothiazol-2-yl]-4-fluoro-benzamide], for which the melting point lay in the range of 262 to 264 °C. For `COc1ccc(-c2csc(N(C)C)n2)c2sc(NC(=O)c3ccc(F)cc3)nc12` [Example 219, N-[7-(2-Dimethylamino-thiazol-4-yl)-4-methoxy-benzothiazol-2-yl]-4-fluoro-benzamide], the melting point is 218 to 220 °C. Still for that read-out and setting: the figure for `COc1ccc(-c2cccs2)c2sc(NC(=O)c3ccc(F)cc3)nc12` [Example 220, 4-Fluoro-N-(4-methoxy-7-thiophen-2-yl-benzothiazol-2-yl)-benzamide] is 242 to 250 °C.

In the case of `COc1ccc(-c2csc(-c3ccccn3)n2)c2sc(NC(=O)c3ccc(F)cc3)nc12` [Example 222, 4-Fluoro-N-[4-methoxy-7-(2-pyridin-2-yl-thiazol-4-yl)-benzothiazol-2-yl]-benzamide], the melting point is 150 °C (dec.). On the same count and under the same terms, the figure for `COc1ccc(-c2csc(C)n2)c2sc(NC(=O)c3ccc(F)cc3)nc12` [Example 224, 4-Fluoro-N-[4-methoxy-7-(2-methyl-thiazol-4-yl)-benzothiazol-2-yl]-benzamide] is 217 to 219 °C; for `COc1ccc(-c2ccc(C)s2)c2sc(NC(=O)c3ccc(F)cc3)nc12` [Example 225, 4-Fluoro-N-[4-methoxy-7-(5-methyl-thiophen-2-yl)-benzothiazol-2-yl]-benzamide] it is 192 to 196 °C (dec.). Same read-out and setting: the figure for `COc1ccc(-c2csc(-c3ccc(C)nc3)n2)c2sc(NC(=O)c3ccc(CCl)cc3)nc12` [Example 228, 4-Chloromethyl-N-{4-methoxy-7-[2-(6-methyl-pyridin-3-yl)-thiazol-4-yl]-benzothiazol-2-yl}-benzamide] is 230 to 250 °C; for `COc1ccc(-c2csc(NC(c3ccccc3)(c3ccccc3)c3ccccc3)n2)c2sc(NC(=O)c3ccc(CCl)cc3)nc12` [Example 229, 4-Chloromethyl-N-{4-methoxy-7-[2-(trityl-amino)-thiazol-4-yl]-benzothiazol-2-yl}-benzamide] it is 163 °C (dec.).

On to `COc1ccc(-c2cccs2)c2sc(NC(=O)c3ccc(CCl)cc3)nc12` [Example 231, 4-Chloromethyl-N-(4-methoxy-7-thiophen-2-yl-benzothiazol-2-yl)-benzamide], for which the melting point was 183 to 209 °C (dec.). The compound `COc1ccc(-c2csc(-c3ccccn3)n2)c2sc(NC(=O)c3ccc(CCl)cc3)nc12` [Example 232, 4-Chloromethyl-N-[4-methoxy-7-(2-pyridin-2-yl-thiazol-4-yl)-benzothiazol-2-yl]-benzamide] had a melting point of 195 to 201 °C.

On to `COc1ccc(-c2csc(C)n2)c2sc(NC(=O)c3ccc(CCl)cc3)nc12` [Example 233, 4-Chloromethyl-N-[4-methoxy-7-(2-methyl-thiazol-4-yl)-benzothiazol-2-yl]-benzamide], for which the melting point was in the range of 140 to 145 °C. Still for that read-out and setting: the figure for `COc1ccc(-c2ccc(C)s2)c2sc(NC(=O)c3ccc(CCl)cc3)nc12` [Example 234, 4-Chloromethyl-N-[4-methoxy-7-(5-methyl-thiophen-2-yl)-benzothiazol-2-yl]-benzamide] is 130 to 146 °C. The same measure, in the same setting: the figure for `COCCN(C)Cc1ccc(C(=O)Nc2nc3c(OC)ccc(-c4csc(NC(c5ccccc5)(c5ccccc5)c5ccccc5)n4)c3s2)cc1` [Example 236, 4-{[(2-Methoxy-ethyl)-methyl-amino]-methyl}-N-{4-methoxy-7-[2-(trityl-amino)-thiazol-4-yl]-benzothiazol-2-yl}-benzamide] is 119 to 128 °C; for `COCCN(C)Cc1ccc(C(=O)Nc2nc3c(OC)ccc(-c4csc(N(C)C)n4)c3s2)cc1` [Example 239, N-[7-(2-Dimethylamino-thiazol-4-yl)-4-methoxy-benzothiazol-2-yl]-4-{[(2-methoxy-ethyl)-methyl-amino]-methyl}-benzamide] it is 85 to 95 °C. Same read-out and setting: the figure for `COCCN(C)Cc1ccc(C(=O)Nc2nc3c(OC)ccc(-c4csc(C)n4)c3s2)cc1` [Example 242, 4-{[(2-Methoxy-ethyl)-methyl-amino]-methyl}-N-[4-methoxy-7-(2-methyl-thiazol-4-yl)-benzothiazol-2-yl]-benzamide] is 140 to 145 °C; for `COCCN(C)Cc1ccc(C(=O)Nc2nc3c(OC)ccc(-c4ccc(C)s4)c3s2)cc1` [Example 243, 4-{[(2-Methoxy-ethyl)-methyl-amino]-methyl}-N-[4-methoxy-7-(5-methyl-thiophen-2-yl)-benzothiazol-2-yl]-benzamide] it is 83 to 90 °C; for `COc1ccc(-c2csc(N3CCCC3)n2)c2sc(NC(=O)c3ccnc(C)c3)nc12` [Example 255, N-[4-Methoxy-7-(2-pyrrolidin-1-yl-thiazol-4-yl)-benzothiazol-2-yl]-2-methyl-isonicotinamide] it is 195 to 215 °C. In turn, `COc1ccc(-c2csc(N3CCN(C)CC3)n2)c2sc(NC(=O)N3CCOCC3)nc12` [Example 261, Morpholine-4-carboxylic acid {4-methoxy-7-[2-(4-methyl-piperazin-1-yl)-thiazol-4-yl]-benzothiazol-2-yl}-amide] showed a melting point of 150 to 170 °C. `COc1ccc(-c2csc(N3CCCCC3)n2)c2sc(NC(=O)N3CCOCC3)nc12` [Example 262, Morpholine-4-carboxylic acid [4-methoxy-7-(2-piperidin-1-yl-thiazol-4-yl)-benzothiazol-2-yl]-amide]: the melting point was 227 to 234 °C. Same read-out and setting: the figure for `COc1ccc(-c2cccs2)c2sc(NC(=O)N3CCOCC3)nc12` [Example 263, Morpholine-4-carboxylic acid (4-methoxy-7-thiophen-2-yl-benzothiazol-2-yl)-amide] is 175 to 182 °C (dec.); for `COc1ccc(-c2ccc(C)s2)c2sc(NC(=O)N3CCOCC3)nc12` [Example 264, Morpholine-4-carboxylic acid [4-methoxy-7-(5-methyl-thiophen-2-yl)-benzothiazol-2-yl]-amide] it is 173 to 180 °C (dec.).
